US11963527B2, “Compounds, compositions, and methods for altering insect and organism behavior” (BASF Corporation, priority 2013, dated 2024)

Experiments:
honeybees = test: Honeybee repulsion feeding station experiment, repellent in 50% sucrose solution; format: in vivo; conditions: 2% by weight with 50% sucrose
Procedure: FIG. 1 describes the feeding station arrangement (A and B) for the honeybee repulsion experiments described herein. As set forth in FIG. 1, panel (A) sets forth the bee cage positions on the left portion of panel (A) with the randomized feeding station positions on the right portion of panel (A). Panel (B) sets forth an alignment of the randomized feeding station positions with a distance of two meters between feeding stations. A total of eight feeding stations were evaluated at a ten meter distance in front of the respective bee hives. The feeding stations were placed two meters apart from one another.
Honeybees were trained to deep feeders (eight positions), each containing a 50% sucrose solution for one day. After the honeybees were trained to each feeder, the 50% sucrose feeder at randomized positions 1-8 was replaced with a shallow feeder containing a combination of repelling compounds and a 50% sucrose solution according to Table 5. In accordance with FIGS. 5 and 6, 2% by weight of Camphor oil (T4), Ajowan oil (T5), Camphor powder (T6), Rosemary oil (T7), and 2-Decanone (T8) in combination with a 50% sucrose treatment were added to feeders on day two.
Table 5 describes active agents evaluated for bee repulsion and their randomized feeding station positions. As described in Table 5, T1 (control), T2 (control), T3 (control), T4 (Camphor oil), T5 (Ajowan oil), T6 (Camphor powder), T7 (Rosemary oil), and T8 (2-Decanone).
FIG. 5 evaluates the number of bees visiting a respective feed station over a time interval. FIG. 6 sets forth the mean number of honeybees visiting feeding station over a period of four hours.

[1] = Stability test of Poncho 600 with α-terpineol, clothianidin content by HPLC; format: physicochemical; conditions: combined with alpha-terpineol; up to 54° C. for eight days
Procedure: Table 7 describes a stability test with a combination of α-terpineol and Poncho 600 evaluated at room temperature, 40° C., and 54° C. at zero time, 2 days, and 8 days as confirmed by HPLC.

[2] = Stability test of Poncho 600 with Eugenol, clothianidin content by HPLC; format: physicochemical; conditions: combined with Eugenol; up to 54° C. for seven days
Procedure: Table 6 describes a stability test with a combination of Eugenol and Poncho evaluated at room temperature, 40° C., and 54° C. at zero time, 3 days, and 7 days as confirmed by high performance liquid chromatography (HPLC).

Compound	repellency to honeybees over the full 4 hour assessment period (honeybees; 4 hours)	repellency to honeybees at 24 hours (honeybees)	repellency to honeybees at 24 hours (honeybees; listed as 2-Decanone)	chemical stability of clothianidin content [1]	chemical stability of clothianidin content [2]
CCCCCCCCC(C)=O [Compound 2-decanone, 2-decanone]	highly repellent	still repellent	exhibited repellency	–	–
CN/C(=N\[N+](=O)[O-])NCc1cnc(Cl)s1 [clothianidin]	–	–	–	exhibited chemical stability	exhibited chemical stability
